In US11535607B2, “Isoindolines as HDAC inhibitors” (Valo Health, Inc., priority 2018, dated 2022):
In brackets after ≈: the same amount, converted by molar mass. Read-outs that look alike come from different tables or passages of the source.

Legend:
[1] = In vitro intrinsic clearance after incubation with mouse liver microsomes; type: in vitro ADME; conditions: Table 6
[2] = Kinetic solubility at pH 7.4; type: physicochemical; conditions: aqueous buffer, kinetic from dmso stock
[3] = target: T1, full-length human HDAC11 (Homo sapiens (Human), UniProt Q96DB2); assay: Probe binding HDAC11 time resolved fluorescence (TRF) assay; conditions: Table 2, read-out: HDAC11 IC50 Range
[4] = target: T1, full-length human HDAC11; assay: HDAC11 deacetylase electrophoretic mobility shift assay (Nanosyn); type: biochemical; conditions: for IC50: mobility shift assay
Procedure: The measurement of HD AC 11 deacetylase activity was performed using an electrophoretic mobility shift assay by Nanosyn (Santa Clara, Calif.). Full length human recombinant HD AC 11 protein was expressed in baculoviral system and purified by affinity chromatography. The enzymatic reactions were assembled in 384 well plates in a total volume of 25 μL in a reaction buffer composing: 100 mM HEPES, pH 7.5, 25 mM KCl, 0.1% bovine serum albumin, 0.01% Triton X-100, 1% DMSO (from compounds), 2 μM of the fluorescently labeled peptide substrate and enzyme. The enzyme was added at a final concentration of 10 nM. The peptide substrate FAM-RHKK(tri-fluor-Ac)—NH2 was used. The compounds were tested at 12 concentrations spaced by 3× dilution intervals. Negative control samples (0%-inhibition in the absence of inhibitor) and positive control samples (100%-inhibition) were assembled in replicates of four in each assay plate. The reactions were incubated at 25° C. and quenched by the addition of 45 μL of termination buffer (100 mM HEPES, pH 7.5, 0.01% Triton X-100, 0.05% SDS).
The terminated assay plates were analyzed on LabChip® 3000 microfluidic electrophoresis instrument (Perkin Elmer/Caliper Life Sciences). The fluorescence intensity of the electrophoretically separated de-acetylated product and substrate peptide was measured. Activity in each sample was determined as the product to sum ratio (PSR): P/(S+P), where P is the peak height of the product peptide and S is the peak height of the substrate peptide. Percent inhibition (Pinh) is determined using the following equation: Pinh=(PSR0%−PSRinh)/(PSR0%−PSR100%)*100, where PSRinh, is the product sum ratio in the presence of inhibitor, PSR0% is the average product sum ration in the absence of inhibitor and PSR100% is the average product sum ratio in 100%-inhibition control samples. The IC50 values of inhibitors were determined by fitting the percent inhibition curves with 4 parameter dose-response model using XLfit 4 software.

[5] = target: HDAC11 fused to Nanoluc luciferase (Homo sapiens (Human), UniProt Q96DB2); assay: BRET target engagement cell assay
[6] = target: HDAC11 (Homo sapiens (Human), UniProt Q96DB2); assay: Lipophilic efficiency (pIC50 HDAC11 - clogD7.4); conditions: pIC50 HDAC11 - clogD7.4, Table 6
[7] = target: HDAC9 (Homo sapiens (Human), UniProt Q9UKV0); assay: HDAC9 electrophoretic mobility shift assay; type: biochemical; conditions: Table 7, read-out: HDAC IC50, HDAC 9
[8] = Mouse pharmacokinetic study (i.v. and i.p.); type: in vivo
Procedure: Based on its overall in vitro profile, 22-8 was advanced to mouse PK studies to measure its suitability as an in vivo tool compound. The pharmacokinetic properties of 22-8 were assessed in male Balb/c nude mice following both intravenous (i.v.) and intraperitoneal (i.p.) dosing (Table 8).

[9] = target: HDAC7 (Homo sapiens (Human), UniProt Q8WUI4); assay: HDAC7 electrophoretic mobility shift assay; type: biochemical; conditions: Table 7, read-out: HDAC IC50, HDAC 7
[10] = target: HDAC5 (Homo sapiens (Human), UniProt Q9UQL6); assay: HDAC5 electrophoretic mobility shift assay; type: biochemical; conditions: Table 7, read-out: HDAC IC50, HDAC 5
[11] = target: HDAC10 (Homo sapiens (Human), UniProt Q969S8); assay: HDAC10 electrophoretic mobility shift assay; type: biochemical; conditions: Table 7, read-out: HDAC IC50, HDAC 10
[12] = target: HDAC8 (Homo sapiens (Human), UniProt Q9BY41); assay: HDAC8 electrophoretic mobility shift assay; type: biochemical; conditions: Table 7, read-out: HDAC IC50, HDAC 8
[13] = target: HDAC2 (Homo sapiens (Human), UniProt Q92769); assay: HDAC2 electrophoretic mobility shift assay; type: biochemical; conditions: Table 7, read-out: HDAC IC50, HDAC 2
[14] = target: HDAC1 (Homo sapiens (Human), UniProt Q13547); assay: HDAC1 electrophoretic mobility shift assay; type: biochemical; conditions: Table 7, read-out: HDAC IC50, HDAC 1
[15] = test system: other 10 members of the HDAC family; assay: HDAC family selectivity profile, electrophoretic mobility shift assays; type: biochemical, human; conditions: HDAC 1-11 profile
[16] = target: HDAC6 (Homo sapiens (Human), UniProt Q9UBN7); assay: HDAC6 electrophoretic mobility shift assay; type: biochemical; conditions: mobility shift assay, Table 7; read-out: HDAC IC50, HDAC 6
[17] = target: HDAC4 (Homo sapiens (Human), UniProt P56524); assay: HDAC4 electrophoretic mobility shift assay; type: biochemical; conditions: Table 7, read-out: HDAC IC50, HDAC 4
[18] = target: HDAC3 (Homo sapiens (Human), UniProt O15379); assay: HDAC3 electrophoretic mobility shift assay; type: biochemical; conditions: Table 7, read-out: HDAC IC50, HDAC 3
[19] = read-out: HDAC11 BRET IC50, BRET cell assay, Table 6
[20] = IP 5 mg/kg, male Balb/c nude mice
[21] = mouse, in vivo, IP 5 mg/kg, male Balb/c nude mice
[22] = mouse, in vivo, IV 1 mg/kg, male Balb/c nude mice

T1 sequence (Q96DB2 whole entry): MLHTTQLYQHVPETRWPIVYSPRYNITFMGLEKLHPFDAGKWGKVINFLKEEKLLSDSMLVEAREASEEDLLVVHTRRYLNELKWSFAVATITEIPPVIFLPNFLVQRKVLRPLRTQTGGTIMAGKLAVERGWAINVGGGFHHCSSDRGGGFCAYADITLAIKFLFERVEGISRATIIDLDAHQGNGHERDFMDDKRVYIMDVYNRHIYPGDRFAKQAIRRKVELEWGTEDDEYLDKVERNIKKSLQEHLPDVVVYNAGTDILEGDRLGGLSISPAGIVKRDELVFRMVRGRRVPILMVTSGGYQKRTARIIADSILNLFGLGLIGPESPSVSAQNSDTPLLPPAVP
Chain of HDAC11 fused to Nanoluc luciferase (Q96DB2 whole entry, the tested form may be a part): as the sequence (Q96DB2 whole entry) above
Chain of HDAC11 (Q96DB2 whole entry): as above
Chain of HDAC7 (Q8WUI4 whole entry): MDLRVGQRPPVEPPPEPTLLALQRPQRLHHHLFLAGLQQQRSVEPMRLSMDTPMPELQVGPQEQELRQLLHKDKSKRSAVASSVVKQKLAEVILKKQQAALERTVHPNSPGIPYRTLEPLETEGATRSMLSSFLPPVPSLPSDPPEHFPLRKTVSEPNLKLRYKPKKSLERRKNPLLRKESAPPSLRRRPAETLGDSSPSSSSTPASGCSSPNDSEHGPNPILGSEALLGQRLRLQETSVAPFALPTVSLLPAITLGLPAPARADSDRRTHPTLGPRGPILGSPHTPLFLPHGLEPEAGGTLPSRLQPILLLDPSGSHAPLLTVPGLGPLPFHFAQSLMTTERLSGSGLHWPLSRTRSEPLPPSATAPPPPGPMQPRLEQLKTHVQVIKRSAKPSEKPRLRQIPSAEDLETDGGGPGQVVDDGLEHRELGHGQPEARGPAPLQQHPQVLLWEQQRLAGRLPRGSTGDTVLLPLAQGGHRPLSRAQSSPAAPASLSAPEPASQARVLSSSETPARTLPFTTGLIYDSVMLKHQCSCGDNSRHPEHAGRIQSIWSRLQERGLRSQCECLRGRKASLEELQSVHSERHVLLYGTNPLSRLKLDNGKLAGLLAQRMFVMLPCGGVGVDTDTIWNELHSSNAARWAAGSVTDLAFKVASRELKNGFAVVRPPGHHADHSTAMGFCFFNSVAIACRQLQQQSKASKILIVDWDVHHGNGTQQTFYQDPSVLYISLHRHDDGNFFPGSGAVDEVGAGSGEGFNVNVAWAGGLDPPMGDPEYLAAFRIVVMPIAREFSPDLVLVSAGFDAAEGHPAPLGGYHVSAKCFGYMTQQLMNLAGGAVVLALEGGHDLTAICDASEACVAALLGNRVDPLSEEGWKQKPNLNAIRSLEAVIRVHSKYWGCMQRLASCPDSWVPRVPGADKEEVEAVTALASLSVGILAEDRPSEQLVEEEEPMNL
Chain of HDAC9 (Q9UKV0 whole entry): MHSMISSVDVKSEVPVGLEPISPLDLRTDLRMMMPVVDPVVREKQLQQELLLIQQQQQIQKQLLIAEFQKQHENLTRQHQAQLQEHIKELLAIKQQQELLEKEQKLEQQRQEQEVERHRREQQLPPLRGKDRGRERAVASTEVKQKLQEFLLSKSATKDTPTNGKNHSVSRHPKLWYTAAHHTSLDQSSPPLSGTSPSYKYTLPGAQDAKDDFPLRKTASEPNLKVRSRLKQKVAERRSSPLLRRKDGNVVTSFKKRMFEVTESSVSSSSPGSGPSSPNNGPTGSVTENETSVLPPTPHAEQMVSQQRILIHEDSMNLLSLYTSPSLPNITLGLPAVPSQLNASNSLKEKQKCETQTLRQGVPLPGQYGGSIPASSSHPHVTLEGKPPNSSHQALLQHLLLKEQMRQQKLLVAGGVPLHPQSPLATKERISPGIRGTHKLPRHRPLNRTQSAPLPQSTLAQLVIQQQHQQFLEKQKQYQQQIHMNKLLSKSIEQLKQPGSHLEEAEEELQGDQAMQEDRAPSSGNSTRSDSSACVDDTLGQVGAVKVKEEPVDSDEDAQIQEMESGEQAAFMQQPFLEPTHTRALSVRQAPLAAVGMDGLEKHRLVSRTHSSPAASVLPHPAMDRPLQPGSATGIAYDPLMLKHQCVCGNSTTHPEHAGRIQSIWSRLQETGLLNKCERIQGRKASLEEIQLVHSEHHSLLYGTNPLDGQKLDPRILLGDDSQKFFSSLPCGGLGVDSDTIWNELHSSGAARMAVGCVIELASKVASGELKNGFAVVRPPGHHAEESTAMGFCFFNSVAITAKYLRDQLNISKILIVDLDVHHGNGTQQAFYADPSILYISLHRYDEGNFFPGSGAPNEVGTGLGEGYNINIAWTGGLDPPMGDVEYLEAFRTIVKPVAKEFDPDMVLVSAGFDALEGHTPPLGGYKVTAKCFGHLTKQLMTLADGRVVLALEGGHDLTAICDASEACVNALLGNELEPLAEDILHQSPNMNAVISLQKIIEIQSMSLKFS
Chain of HDAC5 (Q9UQL6 whole entry): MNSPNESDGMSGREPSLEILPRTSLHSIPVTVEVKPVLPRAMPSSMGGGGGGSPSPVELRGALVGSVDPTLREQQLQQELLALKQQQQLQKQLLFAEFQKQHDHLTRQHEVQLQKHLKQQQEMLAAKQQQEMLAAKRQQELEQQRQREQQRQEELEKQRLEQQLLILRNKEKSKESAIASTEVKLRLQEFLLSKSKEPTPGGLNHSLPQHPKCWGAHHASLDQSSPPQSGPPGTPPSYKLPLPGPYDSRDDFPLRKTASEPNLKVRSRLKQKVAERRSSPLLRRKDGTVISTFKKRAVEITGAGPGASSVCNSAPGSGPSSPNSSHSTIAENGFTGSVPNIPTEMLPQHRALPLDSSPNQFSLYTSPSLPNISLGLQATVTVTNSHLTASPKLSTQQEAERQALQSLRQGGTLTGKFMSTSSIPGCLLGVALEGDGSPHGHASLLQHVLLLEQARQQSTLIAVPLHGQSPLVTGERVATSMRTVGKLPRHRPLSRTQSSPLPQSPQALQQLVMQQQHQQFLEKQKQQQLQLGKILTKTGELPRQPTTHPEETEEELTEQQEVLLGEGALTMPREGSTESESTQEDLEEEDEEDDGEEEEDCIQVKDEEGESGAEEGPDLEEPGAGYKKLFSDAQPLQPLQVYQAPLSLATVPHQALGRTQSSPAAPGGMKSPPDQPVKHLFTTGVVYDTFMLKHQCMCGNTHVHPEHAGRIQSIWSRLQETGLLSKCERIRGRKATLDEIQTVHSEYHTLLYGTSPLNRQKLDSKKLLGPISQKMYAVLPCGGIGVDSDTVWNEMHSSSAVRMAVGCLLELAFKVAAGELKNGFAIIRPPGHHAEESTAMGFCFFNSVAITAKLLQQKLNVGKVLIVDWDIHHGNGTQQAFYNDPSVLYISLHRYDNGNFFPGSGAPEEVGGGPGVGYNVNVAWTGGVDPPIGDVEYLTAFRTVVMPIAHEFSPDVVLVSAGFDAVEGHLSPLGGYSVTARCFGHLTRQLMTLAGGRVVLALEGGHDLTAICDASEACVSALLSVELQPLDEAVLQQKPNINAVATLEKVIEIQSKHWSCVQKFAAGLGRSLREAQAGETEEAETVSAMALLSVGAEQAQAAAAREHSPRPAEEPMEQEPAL
Chain of HDAC4 (P56524 whole entry): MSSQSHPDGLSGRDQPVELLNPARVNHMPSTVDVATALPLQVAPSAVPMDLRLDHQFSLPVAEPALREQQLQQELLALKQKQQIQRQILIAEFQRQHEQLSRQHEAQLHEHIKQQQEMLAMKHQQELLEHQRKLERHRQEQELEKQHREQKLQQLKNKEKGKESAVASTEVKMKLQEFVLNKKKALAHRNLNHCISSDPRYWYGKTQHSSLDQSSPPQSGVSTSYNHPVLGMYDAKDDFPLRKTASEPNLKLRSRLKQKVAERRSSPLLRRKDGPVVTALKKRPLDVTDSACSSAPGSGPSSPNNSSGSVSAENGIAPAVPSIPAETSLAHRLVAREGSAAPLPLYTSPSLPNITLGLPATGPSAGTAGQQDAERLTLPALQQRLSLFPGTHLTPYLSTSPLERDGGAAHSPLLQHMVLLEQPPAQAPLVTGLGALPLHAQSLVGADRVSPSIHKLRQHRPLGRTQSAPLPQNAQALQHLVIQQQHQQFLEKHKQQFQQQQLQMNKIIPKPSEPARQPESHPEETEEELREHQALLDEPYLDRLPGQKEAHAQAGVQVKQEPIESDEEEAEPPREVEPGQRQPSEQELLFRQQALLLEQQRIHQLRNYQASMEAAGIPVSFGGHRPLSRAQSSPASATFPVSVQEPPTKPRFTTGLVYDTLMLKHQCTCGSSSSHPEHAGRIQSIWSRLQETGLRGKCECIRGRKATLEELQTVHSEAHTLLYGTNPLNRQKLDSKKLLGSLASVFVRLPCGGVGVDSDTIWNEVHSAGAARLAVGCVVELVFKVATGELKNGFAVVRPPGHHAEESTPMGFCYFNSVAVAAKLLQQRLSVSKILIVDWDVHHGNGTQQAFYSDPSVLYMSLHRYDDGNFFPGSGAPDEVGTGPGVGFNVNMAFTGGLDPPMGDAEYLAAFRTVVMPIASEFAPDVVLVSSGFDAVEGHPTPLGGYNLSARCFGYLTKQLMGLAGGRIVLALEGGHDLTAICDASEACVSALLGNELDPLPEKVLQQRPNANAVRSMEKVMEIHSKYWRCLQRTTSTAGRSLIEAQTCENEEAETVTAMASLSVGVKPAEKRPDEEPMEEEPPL
Chain of HDAC2 (Q92769 whole entry): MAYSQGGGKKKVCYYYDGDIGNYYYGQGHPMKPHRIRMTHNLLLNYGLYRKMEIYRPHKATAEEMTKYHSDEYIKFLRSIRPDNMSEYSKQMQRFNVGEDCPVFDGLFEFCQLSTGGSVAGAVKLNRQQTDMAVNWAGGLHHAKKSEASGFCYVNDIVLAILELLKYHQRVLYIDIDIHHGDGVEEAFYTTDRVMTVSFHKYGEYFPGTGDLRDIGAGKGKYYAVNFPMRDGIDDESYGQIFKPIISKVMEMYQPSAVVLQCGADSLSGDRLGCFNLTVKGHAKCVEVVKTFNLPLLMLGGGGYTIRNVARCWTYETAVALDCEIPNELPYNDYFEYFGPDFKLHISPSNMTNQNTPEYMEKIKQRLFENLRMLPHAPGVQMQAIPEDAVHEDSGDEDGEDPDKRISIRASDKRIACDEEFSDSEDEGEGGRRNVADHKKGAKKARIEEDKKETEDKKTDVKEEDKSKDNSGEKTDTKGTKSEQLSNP

Row | SMILES | microsomal CLint [1] | solubility [2] | IC50 [3] | IC50 ([4]; Table 6, read-out: HDAC11 IC50) | IC50 [5, 19] | LipE [6] | further results
1 | CC1(C)c2cccc(C(=O)NO)c2CN1c1ncc(C(F)(F)F)cn1 [Compound 22-6, N-hydroxy-1,1-dimethyl-2-(5-(trifluoromethyl)pyrimidin-2-yl)isoindoline-4-carboxamide] | < 50 µL/min/mg | 30 to 55 µM (≈ 10.6 to 19.4 µg/mL) | < 500 nM | < 500 nM | < 500 nM | ++ (indicates 5.5<LipE≤6.5) | 
2 | CC1(C)c2cccc(C(=O)NO)c2CN1c1ccc(C(F)(F)F)cn1 [Compound 22-2, N-hydroxy-1,1-dimethyl-2-(5-(trifluoromethyl)pyridin-2-yl)isoindoline-4-carboxamide] | < 50 µL/min/mg | ≤ 30 µM | < 500 nM | < 500 nM | < 500 nM | ++ (indicates 5.5<LipE≤6.5) | 
3 | CC1(C)c2cccc(C(=O)NO)c2CN1c1cnc(C(F)(F)F)cn1 [Compound 22-8, N-Hydroxy-1,1-dimethyl-2-(5-(trifluoromethyl)pyrazin-2-yl)isoindoline-4-carboxamide] | < 50 µL/min/mg | 30 to 55 µM (≈ 10.6 to 19.4 µg/mL) |  |  |  |  | IC50 [7]: > 1000 nM; Bioavailability [8, 20]: 81 % F; t1/2 [8, 20]: 10.2 h; t1/2 ([8]; IV 1 mg/kg, male Balb/c nude mice): 9.4 h; AUC(0-t) [8, 21]: 3.8 µM·h; Cmax [8, 21]: 4.2 µM; half-life [8, 21]: 10.2 h; AUC(0-t) [8, 22]: 1 µM·h; C0 [8, 22]: 3.5 µM; clearance [8, 22]: 42 mL/min/kg; half-life [8, 22]: 9.4 h; Vd ([8]; mouse, in vivo, IV 1 mg/kg, male Balb/c nude mice, read-out: Vss): 18 L/kg; time free drug levels maintained over the cellular IC50 ([8]; single 5 mg/kg i.p. dose, mice): up to 4 h; IC50 [9]: > 1000 nM; IC50 [10]: > 1000 nM
4 | CC1(C)c2cccc(C(=O)NO)c2CN1c1nc2ncccc2o1 [Compound 18-2, N-hydroxy-1,1-dimethyl-2-(oxazolo[4,5-b]pyridin-2-yl)isoindoline-4-carboxamide] | < 50 µL/min/mg | > 55 µM | < 500 nM | < 500 nM | < 500 nM | +++ (indicates a LipE>6.5) | 
5 | CC1(C)c2cccc(C(=O)NO)c2CN1c1ccc(C(F)(F)F)nc1 [Compound 22-3, N-hydroxy-1,1-dimethyl-2-(6-(trifluoromethyl)pyridin-3-yl)isoindoline-4-carboxamide] | < 50 µL/min/mg | 30 to 55 µM (≈ 10.5 to 19.3 µg/mL) | < 500 nM | < 500 nM | < 500 nM | ++ (indicates 5.5<LipE≤6.5) | IC50 [5]: < 20 nM
6 | CC1(C)c2cccc(C(=O)NO)c2CN1c1cnc(C(F)(F)F)nc1 [Compound 22-7, N-hydroxy-1,1-dimethyl-2-(2-(trifluoromethyl)pyrimidin-5-yl)isoindoline-4-carboxamide] | < 50 µL/min/mg | > 55 µM | < 500 nM | < 500 nM | < 500 nM | ++ (indicates 5.5<LipE≤6.5) | 
7 | CC1(C)c2cccc(C(N)=O)c2CN1c1cnc(C(F)(F)F)cn1 [Compound 50-1, 1,1-Dimethyl-2-(5-(trifluoromethyl)pyrazin-2-yl)isoindoline-4-carboxamide] | < 50 µL/min/mg | ≤ 30 µM |  | > 1000 nM |  | + (indicates LipE≤5.5) | IC50 [7]: > 1000 nM; IC50 [11]: > 1000 nM; IC50 [9]: > 1000 nM; IC50 [10]: > 1000 nM; IC50 [12]: > 1000 nM; IC50 [13]: > 1000 nM; HDAC11 potency, in words ([4]; comparison with parent or lead compound): loss of all HDAC11 activity; IC50 ([4]; Table 7, read-out: HDAC IC50, HDAC 11): > 1000 nM; IC50 [14]: > 1000 nM; activity against all HDACs, in words [15]: inactive against all HDACs; IC50 [16]: > 1000 nM; IC50 [17]: > 1000 nM; IC50 [5]: > 1000 nM; IC50 [18]: > 1000 nM
